Data as given in patent US20220227707A1, “COMPOUNDS AND COMPOSITIONS FOR TREATING CONDITIONS ASSOCIATED WITH NLRP ACTIVITY” (Novartis AG, priority 2019, published 2022).

What follows are molecules tested on IL-1β production in PMA-differentiated THP-1 cells (assay: IL-1β production in PMA-differentiated THP-1 cells stimulated with gramicidin (hTHP-1 assay)). Conditions: Average IC50, hTHP-1 assay containing 2% fetal bovine serum; Table 10, class symbols.
Assay type: cell-based, human
Procedure: Procedure 1: IL-1β Production in PMA-Differentiated THP-1 Cells Stimulated with Gramicidin
THP-1 cells were purchased from the American Type Culture Collection and sub-cultured according to instructions from the supplier. Cells were cultured in complete RPMI 1640 (containing 10% heat inactivated FBS, penicillin (100 units/ml) and streptomycin (100 μg/ml)), and maintained in log phase prior to experimental setup. Prior to the experiment, compounds were dissolved in dimethyl sulfoxide (DMSO) to generate a 30 mM stock. The compound stock was first pre-diluted in DMSO to 3, 0.34, 0.042 and 0.0083 mM intermediate concentrations and subsequently spotted using Echo550 liquid handler into an empty 384-well assay plate to achieve desired final concentration (e.g. 100, 33, 11, 3.7, 1.2, 0.41, 0.14, 0.046, 0.015, 0.0051, 0.0017 μM). DMSO was backfilled in the plate to achieve a final DMSO assay concentration of 0.37%. The plate was then sealed and stored at room temperature until required.
THP-1 cells were treated with PMA (Phorbol 12-myristate 13-acetate) (20 ng/ml) for 16-18 hours. On the day of the experiment the media was removed and adherent cells were detached with trypsin for 5 minutes. Cells were then harvested, washed with complete RPMI 1640, spun down, and resuspended in RPMI 1640 (containing 2% heat inactivated FBS, penicillin (100 units/ml) and streptomycin (100 μg/ml). The cells were plated in the 384-well assay plate containing the spotted compounds at a density of 50,000 cells/well (final assay volume 50 μl). Cells were incubated with compounds for 1 hour and then stimulated with gramicidin (5 μM) (Enzo) for 2 hours. Plates were then centrifuged at 340 g for 5 min. Cell free supernatant ([…]) was collected using a 96-channel PlateMaster (Gilson) and the production of IL-1β was evaluated by HTRF (cisbio). The plates were incubated for 18 h at 4° C. and read using the preset HTRF program (donor emission at 620 nm, acceptor emission at 668 nm) of the SpectraMax i3x spectrophotometer (Molecular Devices, software SoftMax 6). A vehicle only control and a dose titration of CRID3 (100-0.0017 μM) were run concurrently with each experiment.
Procedure 2: […] Production in PMA-Differentiated THP-1 Cells Stimulated with Gramicidin
THP-1 cells were purchased from the American Type Culture Collection and sub-cultured according to instructions from the supplier. Prior to experiments, cells were cultured in complete RPMI 1640 (containing 10% heat inactivated FBS, penicillin (100 units/ml) and streptomycin (100 μg/ml)), and maintained in log phase prior to experimental setup. Prior to the experiment THP-1 were treated with PMA (Phorbol 12-myristate 13-acetate) (20 ng/ml) for 16-18 hours. Compounds were dissolved in dimethyl sulfoxide (DMSO) to generate a 30 mM stock. On the day of the experiment the media was removed and adherent cells were detached with trypsin for 5 minutes. Cells were then harvested, washed with complete RPMI 1640, spun down, resuspended in RPMI 1640 (containing 2% heat inactivated FBS, penicillin (100 units/ml) and streptomycin (100 μg/ml). The cells were plated in a 384-well plate at a density of 50,000 cells/well (final assay volume 50 μl). Compounds were first dissolved in assay medium to obtain a 5× top concentration of 500 μM. 10 step dilutions (1:3) were then undertaken in assay medium containing 1.67% DMSO. 5× compound solutions were added to the culture medium to achieve desired final concentration (e.g. 100, 33, 11, 3.7, 1.2, 0.41, 0.14, 0.046, 0.015, 0.0051, 0.0017 μM). Final DMSO concentration was at 0.37%. Cells were incubated with compounds for 1 hour and then stimulated with gramicidin (5 μM) (Enzo) for 2 hours. Plates were then centrifuged at 340 g for 5 min. Cell free supernatant (40 μL) was collected using a 96-channel PlateMaster (Gilson) and the production of IL-1β was evaluated by HTRF (cisbio). A vehicle only control and a dose titration of CRID3 (100-0.0017 μM) were run concurrently with each experiment. […]

Row | IC50 | SMILES
1 | 1 to 5 µM | CN(C)CCCS(N)(=O)=NC(=O)Nc1c2c(cc3c1CCC3)CCC2 (single isomer, unassigned) [Compound 142, 3-(dimethylamino)-N′-((1,2,3,5,6,7-hexahydro-s-indacen-4-yl)carbamoyl)propane-1-sulfonimidamide]
2 | 5 to 30 µM | CN(C)CCCS(N)(=O)=NC(=O)Nc1c2c(cc3c1CCC3)CCC2 (single isomer, unassigned) [Compound 143, 3-(dimethylamino)-N′-((1,2,3,5,6,7-hexahydro-s-indacen-4-yl)carbamoyl)propane-1-sulfonimidamide]
3 | 5 to 30 µM | NS(=O)(=NC(=O)Nc1c2c(cc3c1CCC3)CCC2)C1CC1 (single isomer, unassigned) [Compound 155]
4 | 1 to 5 µM | CC(C)(O)c1ccc(CS(N)(=O)=NC(=O)Nc2c3c(cc4c2CCC4)CCC3)cc1 (single isomer, unassigned) [Compound 165a]
5 | 0.04 to 0.2 µM | CC(C)(O)c1ccc(CS(N)(=O)=NC(=O)Nc2c3c(cc4c2CCC4)CCC3)cc1 (single isomer, unassigned) [Compound 165b]
6 | 5 to 30 µM | CC(CN(C)C)CS(N)(=O)=NC(=O)Nc1c2c(cc3c1CCC3)CCC2 (stereo not shown) [Compound 121]

Same assay, conditions: Average IC50, hTHP-1 assay containing 2% fetal bovine serum; Table 10, numeric values

Row | IC50 | SMILES
7 | > 30 µM | CN(C)S(C)(=O)=NC(=O)Nc1c2c(cc3c1CCC3)CCC2 (single isomer, unassigned) [Compound 102, N′-((1,2,3,5,6,7-hexahydro-s-indacen-4-yl)carbamoyl)-N,N-dimethylmethanesulfonimidamide]
8 | > 30 µM | CC(CN(C)C)CS(N)(=O)=NC(=O)Nc1c2c(cc3c1CCC3)CCC2 (single isomer, unassigned) [Compound 127, 3-(dimethylamino)-N′-((1,2,3,5,6,7-hexahydro-s-indacen-4-yl)carbamoyl)-2-methylpropane-1-sulfonimidamide]
9 | > 30 µM | NS(=O)(=NC(=O)Nc1c2c(cc3c1CCC3)CCC2)C1CCC1 (single isomer, unassigned) [Compound 146]

Same assay, conditions: Homo sapiens, THP-1, Average IC50, hTHP-1 assay containing 2% fetal bovine serum; Table 3B, class symbols

Row | IC50 | SMILES
10 | 5 to 30 µM | CN(C)S(N)(=O)=NC(=O)Nc1c2c(cc3c1CCC3)CCC2 (stereo not shown) [Compound 101B, 3-[amino(dimethylamino)oxo-lambda6-sulfanylidene]-1-(1,2,3,5,6,7-hexahydro-s-indacen-4-yl)urea]

Same assay, conditions: Homo sapiens, THP-1, Average IC50, hTHP-1 assay containing 2% fetal bovine serum; Table 10, class symbols

Row | SMILES | IC50
11 | CN(C)Cc1ccc(CS(N)(=O)=NC(=O)Nc2c3c(cc4c2CCC4)CCC3)cc1 (single isomer, unassigned) [Compound 106] | 1 to 5 µM
12 | CN1CCC(CS(N)(=O)=NC(=O)Nc2c3c(cc4c2CCC4)CCC3)C1 (single isomer, unassigned) [Compound 114] | 5 to 30 µM
13 | CS(N)(=O)=NC(=O)Nc1c2c(cc3c1CCC3)CCC2 (single isomer, unassigned) [Compound 117] | 5 to 30 µM
14 | CN(C)CCCC(=O)NS(C)(=O)=NC(=O)Nc1c2c(cc3c1CCC3)CCC2 (single isomer, unassigned) [Compound 119, 4-(dimethylamino)-N—(N-((1,2,3,5,6,7-hexahydro-s-indacen-4-yl)carbamoyl)-S-methylsulfonimidoyl)butanamide] | 5 to 30 µM
15 | CC(CN(C)C)CS(N)(=O)=NC(=O)Nc1c2c(cc3c1CCC3)CCC2 (single isomer, unassigned) [Compound 122, 3-(dimethylamino)-N′-((1,2,3,5,6,7-hexahydro-s-indacen-4-yl)carbamoyl)-2-methylpropane-1-sulfonimidamide] | 1 to 5 µM
16 | CN(C)Cc1ccc(CS(N)(=O)=NC(=O)Nc2c3c(cc4c2CCC4)CCC3)cc1 (stereo not shown) [Compound 104, 1-(4-((dimethylamino)methyl)pheny1)-N′-((1,2,3,5,6,7-hexahydro-s-indacen-4-yl)carbamoyl) methane-sulfonimidamide] | 1 to 5 µM
17 | CC(CCc1ccccc1)S(N)(=O)=NC(=O)Nc1c2c(cc3c1CCC3)CCC2 (stereo not shown) [Compound 109] | 5 to 30 µM
18 | CC(=O)NS(C)(=O)=NC(=O)Nc1c2c(cc3c1CCC3)CCC2 (stereo not shown) [Compound 111] | 5 to 30 µM
19 | CN1CCC(CS(N)(=O)=NC(=O)Nc2c3c(cc4c2CCC4)CCC3)C1 (stereo not shown) [Compound 112, N′-((1,2,3,5,6,7-hexahydro-s-indacen-4-yl)carbamoy1)-1-(1-methylpyrrolidin-3-yl) methane-sulfonimidamide] | 1 to 5 µM
20 | CS(N)(=O)=NC(=O)Nc1c2c(cc3c1CCC3)CCC2 (stereo not shown) [Compound 115, N′-((1,2,3,5,6,7-hexahydro-s-indacen-4-yl)carbamoyl) methane-sulfonimidamide] | 5 to 30 µM

Other lines, results leading:

Row | IC50 | SMILES
21 | 5 to 30 µM | NS(=O)(=NC(=O)Nc1c2c(cc3c1CCC3)CCC2)C1Cc2ccccc2C1 (single isomer, unassigned) [Compound 129]
22 | 5 to 30 µM | NS(=O)(=NC(=O)Nc1c2c(cc3c1CCC3)CCC2)C1CC1 (single isomer, unassigned) [Compound 154]

Same assay, conditions: Homo sapiens, THP-1, Average IC50, hTHP-1 assay containing 2% fetal bovine serum; Table 10, numeric values

Row | SMILES | IC50
23 | CN(C)S(C)(=O)=NC(=O)Nc1c2c(cc3c1CCC3)CCC2 (single isomer, unassigned) [Compound 101, N′-((1,2,3,5,6,7-hexahydro-s-indacen-4-yl)carbamoyl)-N,N-dimethylmethanesulfonimidamide] | > 30 µM
24 | CN(C)Cc1ccc(CS(N)(=O)=NC(=O)Nc2c3c(cc4c2CCC4)CCC3)cc1 (single isomer, unassigned) [Compound 105] | > 30 µM
25 | CN1CCC(CS(N)(=O)=NC(=O)Nc2c3c(cc4c2CCC4)CCC3)C1 (single isomer, unassigned) [Compound 113] | > 30 µM
26 | CS(N)(=O)=NC(=O)Nc1c2c(cc3c1CCC3)CCC2 (single isomer, unassigned) [Compound 116] | > 30 µM
27 | CN(C)CCCC(=O)NS(C)(=O)=NC(=O)Nc1c2c(cc3c1CCC3)CCC2 (single isomer, unassigned) [Compound 118, 4-(dimethylamino)-N—(N-((1,2,3,5,6,7-hexahydro-s-indacen-4-yl)carbamoyl)-S-methylsulfonimidoyl)butanamide] | > 30 µM
28 | CC(CN(C)C)CS(N)(=O)=NC(=O)Nc1c2c(cc3c1CCC3)CCC2 (single isomer, unassigned) [Compound 124, 3-(dimethylamino)-N′-((1,2,3,5,6,7-hexahydro-s-indacen-4-yl)carbamoyl)-2-methylpropane-1-sulfonimidamide] | > 30 µM
29 | CNS(C)(=O)=NC(=O)Nc1c2c(cc3c1CCC3)CCC2 (stereo not shown) [Compound 103, N′-((1,2,3,5,6,7-hexahydro-s-indacen-4-yl)carbamoy1)-N-methylmethane-sulfonimidamide] | > 30 µM
30 | CN(C)S(C)(=O)=NC(=O)Nc1c2c(cc3c1CCC3)CCC2 (stereo not shown) [Compound 107] | > 30 µM
31 | CS(=O)(=NC(=O)Nc1c2c(cc3c1CCC3)CCC2)NC(=O)c1ccccc1 (stereo not shown) [Compound 108] | > 30 µM

Second part, the molecule after the results:

Row | IC50 | SMILES
32 | > 30 µM | NS(=O)(=NC(=O)Nc1c2c(cc3c1CCC3)CCC2)C1Cc2ccccc2C1 (single isomer, unassigned) [Compound 130]
33 | > 30 µM | CN1CCC(S(N)(=O)=NC(=O)Nc2c3c(cc4c2CCC4)CCC3)C1 (single isomer, unassigned) [Compound 134, N′-((1,2,3,5,6,7-hexahydro-s-indacen-4-yl)carbamoyl)-1-methylpyrrolidine-3-sulfonimidamide]
34 | > 30 µM | NS(=O)(=NC(=O)Nc1c2c(cc3c1CCC3)CCC2)C1CCC1 (single isomer, unassigned) [Compound 145]
